Measurements reported in US20150196638A1, “SYSTEM AND METHOD FOR USING ULTRASOUND-STIMULATED MICROBUBBLE EXPOSURES TO INDUCE CERAMIDE ACCUMULATION IN ENDOTHELIAL AND TUMOR CELLS” (priority 2012, published 2015).

Columns and labels:
asmase +/+ astrocytes = experiment: Clonogenic survival assay, asmase +/+ astrocytes; type: cell-based, mouse
Procedure: All cells were grown at 37 degrees Celsius with 5% CO2. Primary astrocytes (obtained from asmase +/+ and asmase −/− mouse brains, Sunnybrook Health Sciences Centre, Toronto, ON) were cultured in DMEM with 10% fetal bovine serum (FBS) and 5% Penicillin. HUVEC cells (Sunnybrook Health Sciences Centre, Toronto, ON, Canada) were grown in EBM-2 (Lonza, Walkersville, Md. USA) supplemented with 10 ml FBS, 0.2 ml Hydrocortisone, 2 ml hFGF-B, 0.5 ml VEGF, 0.5 ml R3-IGF-1, 0.5 ml ascorbic acid, 0.5 ml hEGF, 0.5 ml GA-1000 and 0.5 ml Heparin using EGM-2 singlequots kits. Breast and PC3 cells were grown in 1640-RPMI medium (Sigma-Aldrich Canada Inc., Oakville, ON, Canada), leukemia (AML, Ontario Cancer Institute, Toronto, ON), and KHT sarcoma cells (Sunnybrook Health Science Centre) were grown in α-MEM (Sigma-Aldrich Canada Inc., Oakville, ON), all with 10% FBS and 5% penicillin. In order to harvest adherent cells, confluent flasks were PBS washed, after which 0.05% trypsin EDTA (Gibco, Carlsbad, Calif. USA) was added for 5 minutes to detach cells. After trypsinization, cells were centrifuged at 440 g for 10 minutes and brought to a final cell concentration of 2×10̂6 cells/ml of medium with 1.5 ml aliquots used for each treatment (i.e., 3×10̂6 cells/sample). In all experiments cells were carefully handled to avoid clumping after typrinsization and this was verified by microscopy in advance of ultrasound treatments.
For ultrasound treatments, a pulse was generated by a 2.86 cm-diameter single element transducer (IL0509HP, 500 kHz center frequency, Valpey-Fisher Inc., Hopkinton, Mass., USA) connected to a micro-positioning system. The set-up also included a cylindrical chamber (10 mm diameter) for cell exposure. The chamber had mylar windows on both sides and a magnetic stirrer to mix cells and bubbles during ultrasound exposure in order to avoid standing wave effects.
In order to treat the cells, 50 μL of 45 seconds agitated vial-mix DEFINITY® microbubbles (Perflutren lipid microspheres, Lantheus Medical Imaging, Billerica, Mass. USA) and 1.5 ml of the 2×10̂6 cells/ml solution were added to the chamber (for a 3.3% v/v bubbles concentration). Insonification took place using a peak negative pressure of 570 kPa using a pulse sequence with a 9.6% duty cycle composed of a 16 cycle tone burst and a pulse repetition frequency of 3 kHz, for a total insonification time of 2,880 milliseconds over 30 seconds. The −6 dB beamwidth for this transducer was […] and the −3 dB beamwidth was 18 mm. Transducer characteristics were measured using a calibrated hydrophone in the absence and presence of the treatment set-up.
Sphingosine-1-Phosphate (S1P) (Biomol International L.P., Plymouth Meeting, Pa. USA) was used to counteract the mechanisms leading to ceramide-mediated apoptotic cell death. In order to treat cells, 1 μM S1P was added to asmase +/+ and asmase −/− culture media one hour before damage treatments with radiation or ultrasound, and was present during trypsinization, and for clonogenic survival assays in media. The rationale for this was that any activation of ceramide-dependent cell death by treatment may take many hours to manifest and should be inhibited long term. Treatment of cells with C2-Ceramide (Sigma-Aldrich) was carried out similarly.
Radiation treatments were carried out by exposing samples to X-ray ionizing radiation (Faxitron Cabinet X-ray, Faxitron X-Ray LLC, IL) at a dose rate of 200 cGy/minute. […]

HUVEC cells = experiment: Clonogenic survival assay, HUVEC; type: cell-based; settings: 1 μM
Procedure: All cells were grown at 37 degrees Celsius with 5% CO2. Primary astrocytes (obtained from asmase +/+ and asmase −/− mouse brains, Sunnybrook Health Sciences Centre, Toronto, ON) were cultured in DMEM with 10% fetal bovine serum (FBS) and 5% Penicillin. HUVEC cells (Sunnybrook Health Sciences Centre, Toronto, ON, Canada) were grown in EBM-2 (Lonza, Walkersville, Md. USA) supplemented with 10 ml FBS, 0.2 ml Hydrocortisone, 2 ml hFGF-B, 0.5 ml VEGF, 0.5 ml R3-IGF-1, 0.5 ml ascorbic acid, 0.5 ml hEGF, 0.5 ml GA-1000 and 0.5 ml Heparin using EGM-2 singlequots kits. Breast and PC3 cells were grown in 1640-RPMI medium (Sigma-Aldrich Canada Inc., Oakville, ON, Canada), leukemia (AML, Ontario Cancer Institute, Toronto, ON), and KHT sarcoma cells (Sunnybrook Health Science Centre) were grown in α-MEM (Sigma-Aldrich Canada Inc., Oakville, ON), all with 10% FBS and 5% penicillin. […]
In order to treat the cells, 50 μL of 45 seconds agitated vial-mix DEFINITY® microbubbles (Perflutren lipid microspheres, Lantheus Medical Imaging, Billerica, Mass. USA) and 1.5 ml of the 2×10̂6 cells/ml solution were added to the chamber (for a 3.3% v/v bubbles concentration). […] Transducer characteristics were measured using a calibrated hydrophone in the absence and presence of the treatment set-up. […]

[1] = tested on: Human PC3 prostate cancer xenografts; experiment: ISEL / H&E cell death histology of PC3 xenograft tumors (Example 1); type: in vivo, mice
Procedure: Human PC3 prostate cancer (ATCC) xenografts were grown in the hind upper leg of SCID-17 mice (Charles River) by injecting 1.0×10̂6 RPMI-1640 media cultured cells subcutaneously (Wisent Biocentre), with 10% characterized serum (HyClone), and 100 U/mL of penicillin/streptomycin (Invitrogen). Tumors were grown to 7-8 mm diameter size before treatment. For treatments, ketamine and xylazine anesthetized mice were used. Vialmix device-prepared DEFINITY® (Lantheus Medical Imaging; N. Billerica, Mass.) microbubbles (perfluoropropane gas/liposome shell) were administered at doses of 3.6×10̂8 microbubbles (L, low dose) and 1.08×10̂9 microbubbles (H, high dose) in […] volumes of prepared bubbles, respectively. The final circulating concentrations were selected to be higher (100- and 300-fold, respectively) than the diagnostic dose used to ensure efficient interactions of the bubbles and microvascular walls.
Mice were immersed in a 37 degree Celsius water bath to permit ultrasound treatment and centered on the tumor. For ultrasound exposures, a focused central frequency 500-kHz transducer (IL0509HP; ValpeyFisher Inc.) with a 28.6-mm transducer element diameter was used. This was attached to a micropositioning system, and excited with sinusoidal wave generated by a waveform generator (AWG520; Tektronix), a pulse-receive power amplifier (RPR4000; Ritec Inc.), and a digital-acquisition system (Acquiris CC103, Agiulent Technologies NY). Tumors were exposed over 50 ms to a 16-cycle tone burst at 500-kHz and 3-kHz pulse repetition frequencies with a 10% duty cycle during the 50-ms window. Treatments were for 5 min, amounting to a 750-ms exposure over 5 min for all mouse treatments, with an average duty cycle of 0.25%. Specifically, at 500 kHz the pulse bandwidth of the 16-cycle tone burst was 0.032 ms. The pulse repetition period (3-KHz pulse repetition frequency) was 0.333,ms, which, over 50 ms, corresponded to 150 periods of 16-cycle tone burst or 4.8 ms (rounded to 5 ms). […] The ultrasound peak negative pressure was 570 kPa measured with a calibrated hydrophone. […]

[2] = tested on: ceramide in PC3 prostate tumors; experiment: In vivo ceramide immunohistochemistry staining; parameters: species or system mice; settings: 4 μg IV; 2 or 8 Gy with high microbubble concentration
Text: (A) Quantification of ceramide immunohistochemistry staining of sections of PC3 prostate tumors treated with radiation and/or ultrasound-activated microbubbles. Labels indicate non (Nil), low (Low) and high concentration microbubble exposure (High) and radiation doses (0, 2 or 8 Gy). (B) Quantification of ceramide immunohistochemistry staining for experiments with S1P.
In order to test if ultrasound-stimulated microbubbles in combination with ultrasound could stimulate ceramide formation, experiments were carried out using an additional cohort of 75 animals, with five mice per group. Mice were treated as above with no microbubbles, low, and high bubble concentrations in the presence of ultrasound and combined with 0, 2, and 8 Gy radiation doses given in single fractions as above for nine cohorts of n=5 animals. In addition, 0, 2, and 8 Gy conditions with and without high-concentration microbubble exposure in the presence of ultrasound were carried out in the presence of S1P using modified protocols. This used six cohorts of n=5 mice.
For S1P treatments, 4 μg of S1P in 0.2 mL of PET (5% polyethylene glycol, 2.5% ethanol, and 0.8% Tween-80) was injected intravenously in mice 30 min prior to and 5 min after irradiation or after microbubble exposure with ultrasound and irradiation.

CCCCCCCCCCCCC/C=C/[C@@H](O)[C@H](CO)NC(C)=O [C2-Ceramide]
cell kill (asmase +/+ astrocytes; 1 μM): no significant cell kill | survival (asmase +/+ astrocytes; ceramide alone as a control): 50±5% | survival on ceramide exposure (HUVEC cells): did not survive

CCCCCCCCCCCCC/C=C/[C@@H](O)[C@@H](N)COP(=O)(O)O [S1P, Sphingosine-1-Phosphate]
protective effect on survival (asmase +/+ astrocytes; 1 μM, cells treated with either radiation or ultrasound with microbubbles): no protective effect | protective effect on survival (asmase +/+ astrocytes; 1 μM, ultrasound and microbubbles prior to radiation): protection was detected | radioresistance of wild-type astrocytes (asmase +/+ astrocytes; S1P-treated, radiation): conferred some radioresistance | effect on apoptotic cell death induced by microbubbles and radiation ([1]; 4 μg IV 30 min before and 5 min after treatments, 0, 2, 8 Gy with or without high microbubbles): diminishment of detected apoptotic cell death | protection from apoptosis (HUVEC cells; radiation or ultrasound and microbubbles, p<0.01): significantly protected | ceramide increases in the presence of S1P [2]: increases were not apparent

bFGF: basic fibroblast growth factor (Sigma), a known endothelial cell protector
effect of pre-treatment on microbubble-induced cell death ([1]; 0.45 μg IV 1 hour before microbubbles (1% vol/vol) with ultrasound): diminished the cell death | cell death, bFGF-treated animals with ultrasound-stimulated microbubbles versus untreated control ([1]; 0.45 μg IV, P=0.24): no difference
